Measurements: ChEMBL document CHEMBL1159211, “Antifungal evaluation of pseudolaric acid B, a major constituent of Pseudolarix kaempferi” (J Nat Prod, 1995)
Values after ≈ are worked out from the molar mass of the structure shown.

Experiments:
Candida albicans [1] = assay: Antifungal activity against Candida albicans ATCC 10231 at 1 mg/mL by agar-well diffusion assay; type: functional
Mus musculus [2] = assay: Toxicity in CD1 mouse assessed as body weight at 40 mg/kg, ip after day 1; type: organism-based; design: dose 40 mg/kg, route intraperitoneal; details: in vivo
Candida tropicalis [3] = assay: Antifungal activity against Candida tropicalis ATCC 20326 at 1 mg/mL by agar-well diffusion assay; type: functional
Yarrowia deformans [4] = assay: Antifungal activity against Torulopsis petrophilum ATCC 20225 by twofold serial broth dilution method; type: functional
Candida albicans [5] = assay: Antimicrobial activity against Candida albicans at 1 mg/mL by agar-well diffusion assay; type: functional
Candida parapsilosis [6] = assay: Antifungal activity against Candida parapsilosis ATCC 20224 at 1 mg/mL by agar-well diffusion assay; type: functional
Candida parapsilosis [7] = assay: Antifungal activity against Candida parapsilosis ATCC 20224 by twofold serial broth dilution method; type: functional; details: Lodderomyces parapsilosis
[8] = system: Trichophyton mentagrophytes; assay: Antimicrobial activity against Trichophyton mentagrophytes at 1 mg/mL by agar-well diffusion assay; type: functional
Candida albicans [9] = assay: Antifungal activity against Candida albicans ATCC 10231 by twofold serial broth dilution method; type: functional
Candida albicans [10] = assay: Antifungal activity against Candida stellatoidea SA-I by twofold serial broth dilution method; type: functional
Mus musculus [11] = assay: Toxicity in CD1 mouse assessed as body weight at 40 mg/kg, ip administered for 14 consecutive days measured after day 21; type: organism-based; design: dose 40 mg/kg, route intraperitoneal; details: in vivo
Candida albicans [12] = assay: Antifungal activity against Candida albicans B311 at 1 mg/mL by agar-well diffusion assay; type: functional
Candida albicans [13] = assay: Antifungal activity against Candida stellatoidea SA-I at 1 mg/mL by agar-well diffusion assay; type: functional
Torula [14] = assay: Antifungal activity against Torula cremoris NRRL 7495 at 1 mg/mL by agar-well diffusion assay; type: functional
Yarrowia deformans [15] = assay: Antifungal activity against Torulopsis petrophilum ATCC 20225 at 1 mg/mL by agar-well diffusion assay; type: functional
Mus musculus [16] = assay: Toxicity in CD1 mouse assessed as body weight at 40 mg/kg, ip administered for 14 consecutive days measured after day 14; type: organism-based; design: dose 40 mg/kg, route intraperitoneal; details: in vivo
Candida tropicalis [17] = assay: Antifungal activity against Candida tropicalis ATCC 20326 by twofold serial broth dilution method; type: functional
Candida tropicalis [18] = assay: Antifungal activity against Candida tropicalis ATCC 20021 at 1 mg/mL by agar-well diffusion assay; type: functional
Starmerella magnoliae = assay: Antifungal activity against Candida magnoliae ATCC 12573 at 1 mg/mL by agar-well diffusion assay; type: functional
Aspergillus fumigatus = assay: Antimicrobial activity against Aspergillus fumigatus at 1 mg/mL by agar-well diffusion assay; type: functional
Nannizzia gypsea = assay: Antimicrobial activity against Microsporum gypseum at 1 mg/mL by agar-well diffusion assay; type: functional
Candida albicans [19] = assay: Antifungal activity against Candida albicans B311 by twofold serial broth dilution method; type: functional
Torula [20] = assay: Antifungal activity against Torula cremoris NRRL 7495 by twofold serial broth dilution method; type: functional
Candida tropicalis [21] = assay: Antifungal activity against Candida tropicalis LM 64 by twofold serial broth dilution method; type: functional
Candida tropicalis [22] = assay: Antifungal activity against Candida tropicalis ATCC 20021 by twofold serial broth dilution method; type: functional
Candida tropicalis [23] = assay: Antifungal activity against Candida tropicalis LM 64 at 1 mg/mL by agar-well diffusion assay; type: functional
[24] = Toxicity in ip dosed CD1 mouse; type: organism-based; details: in vivo
Candida albicans [25] = assay: (§1) Antifungal activity against Candida albicans NIH B311 infected in mouse assessed as reduction in number of recovered colony-forming units assessed per mg of kidney at 10 mg/kg, sc administered 7 and 24 hrs after infection measured 16 hrs after final injection by tenfold serial dilution method relative to control; type: functional; design: scale not given: the % may be the effect or the level left; details: route subcutaneous
Candida albicans [26] = assay: as §1, with “20” for “10”, “iv” for “sc”, “18” for “7”, “42” for “24”; type: functional; design: scale not given: the % may be the effect or the level left
Candida albicans [27] = assay: as §1, with “20” for “10”; type: functional; design: scale not given: the % may be the effect or the level left; details: route subcutaneous
Candida albicans [28] = assay: as §1, with “iv” for “sc”, “18” for “7”, “42” for “24”; type: functional; design: scale not given: the % may be the effect or the level left
[29] = Toxicity in iv dosed CD1 mouse; type: organism-based; details: in vivo
[30] = system: Mycobacterium intracellulare; assay: Antimicrobial activity against Mycobacterium intracellular at 1 mg/mL by agar-well diffusion assay; type: functional; details: read-out: IZ
Candida albicans [31] = assay: as §1, with “3” for “10”; type: functional; design: scale not given: the % may be the effect or the level left; details: route subcutaneous
Mus musculus [32] = assay: Toxicity in CD1 mouse assessed as unusual behavioral changes at 40 mg/kg, ip administered for 14 consecutive days measured daily for 4 weeks; type: organism-based; design: dose 40 mg/kg, route intraperitoneal; details: in vivo, 672 h

For `COC(=O)C1=CC[C@@]23CC[C@@H]([C@@](C)(/C=C/C=C(\C)C(=O)[O-])OC2=O)[C@@]3(OC(C)=O)CC1.[K+]` [POTASSIUM PSEUDOLARATE B], the “inhibition zone (IZ)” value (Candida albicans [1]) was 7 mm, the Activity (Mus musculus [2]) was 24.2 g and the “inhibition zone (IZ)” value (Candida tropicalis [3]) was 7 mm. The MFC (Yarrowia deformans [4]) was 12.5 µg/mL, the MIC (Yarrowia deformans [4]) was 0.78 µg/mL and the “inhibition zone (IZ)” value (Candida albicans [5]) was 7 mm. The “inhibition zone (IZ)” value (Candida parapsilosis [6]) was 7 mm, the MFC (Candida parapsilosis [7]) was 25 µg/mL and the MIC (Candida parapsilosis [7]) was 3.12 µg/mL. The “inhibition zone (IZ)” value [8] was 7 mm, the MFC (Candida albicans [9]) was 6.25 µg/mL and the MIC (Candida albicans [9]) was 1.56 µg/mL. For the same compound, the MFC (Candida albicans [10]) was 6.25 µg/mL, the MIC (Candida albicans [10]) was 3.12 µg/mL and the Activity (Mus musculus [11]) was 25.6 g. The “inhibition zone (IZ)” value (Candida albicans [12]) was 7 mm, the “inhibition zone (IZ)” value (Candida albicans [13]) was 7 mm and the “inhibition zone (IZ)” value (Torula [14]) was 3 mm. The “inhibition zone (IZ)” value (Yarrowia deformans [15]) was 7 mm, the Activity (Mus musculus [16]) was 25.4 g and the MFC (Candida tropicalis [17]) was 6.25 µg/mL. The MIC (Candida tropicalis [17]) was 1.56 µg/mL, the “inhibition zone (IZ)” value (Candida tropicalis [18]) was 7 mm and the “inhibition zone (IZ)” value (Starmerella magnoliae) was under 1 mm. The “inhibition zone (IZ)” value (Aspergillus fumigatus) was 3 mm, the “inhibition zone (IZ)” value (Nannizzia gypsea) was 7 mm and the MFC (Candida albicans [19]) was 6.25 µg/mL. The MIC (Candida albicans [19]) was 3.12 µg/mL, the MFC (Torula [20]) was 12.5 µg/mL and the MIC (Torula [20]) was 12.5 µg/mL. The MFC (Candida tropicalis [21]) was 6.25 µg/mL, the MIC (Candida tropicalis [21]) was 0.78 µg/mL and the MFC (Candida tropicalis [22]) was 6.25 µg/mL. For the same compound, the MIC (Candida tropicalis [22]) was 3.12 µg/mL and the “inhibition zone (IZ)” value (Candida tropicalis [23]) was over 12 mm.

In the case of `COC(=O)C1=CC[C@@]23CC[C@@H]([C@@](C)(/C=C/C=C(\C)C(=O)O)OC2=O)[C@@]3(OC(C)=O)CC1` [PSEUDOLARIC ACID B], the zone of inhibition at 1000 µg/mL (Candida albicans [1]; Candida albicans, ATCC 10231, read-out: IZ) is reported as 7 mm, the Activity (Mus musculus [2]) is reported as 22.5 g and the zone of inhibition at 1000 µg/mL (Candida tropicalis [3]; Candida tropicalis, ATCC 20326, read-out: IZ) is reported as 7 mm. The MFC (Yarrowia deformans [4]) was 1.56 µg/mL (≈ 3.61 µM), the MIC (Yarrowia deformans [4]) was 0.78 µg/mL (≈ 1.8 µM) and the LD50 [24] was 316 mg/kg. For the same compound, the zone of inhibition at 1000 µg/mL (Candida albicans [5]; Candida albicans, read-out: IZ) was 7 mm, the zone of inhibition at 1000 µg/mL (Candida parapsilosis [6]; Lodderomyces parapsilosis, ATCC 20224, read-out: IZ) was 7 mm and the MFC (Candida parapsilosis [7]) was 12.5 µg/mL (≈ 28.9 µM). It also gave an MIC (Candida parapsilosis [7]) of 3.12 µg/mL (≈ 7.21 µM), an Activity (Candida albicans [25]) of 75% and an Activity (Candida albicans [26]) of 59.9%. For the same compound, the zone of inhibition at 1000 µg/mL ([8]; Trichophyton mentagrophytes, read-out: IZ) was 7 mm, the MFC (Candida albicans [9]) was 3.12 µg/mL (≈ 7.21 µM) and the MIC (Candida albicans [9]) was 1.56 µg/mL (≈ 3.61 µM). The MFC (Candida albicans [10]) was 6.25 µg/mL (≈ 14.5 µM), the MIC (Candida albicans [10]) was 1.56 µg/mL (≈ 3.61 µM) and the Activity (Candida albicans [27]) was 76.7%. For the same compound, the Activity (Mus musculus [11]) was 24.7 g, the Activity (Candida albicans [28]) was 95.34% and the LD50 [29] was 423 mg/kg. It also gave a zone of inhibition at 1000 µg/mL (Candida albicans [12]; Candida albicans, B311, read-out: IZ) of 7 mm, a zone of inhibition at 1000 µg/mL (Candida albicans [13]; Candida albicans, read-out: IZ) of over 12 mm and a zone of inhibition at 1000 µg/mL [30] of 1 mm. The zone of inhibition at 1000 µg/mL (Torula [14]; Torula, NRRL 7495, read-out: IZ) was 3 mm, the zone of inhibition at 1000 µg/mL (Yarrowia deformans [15]; Yarrowia deformans, ATCC 20225, read-out: IZ) was 7 mm and the Activity (Mus musculus [16]) was 24.1 g. The MFC (Candida tropicalis [17]) was 3.12 µg/mL (≈ 7.21 µM), the MIC (Candida tropicalis [17]) was 1.56 µg/mL (≈ 3.61 µM) and the zone of inhibition at 1000 µg/mL (Candida tropicalis [18]; Candida tropicalis, ATCC 20021, read-out: IZ) was 7 mm. For the same compound, the Activity (Candida albicans [31]) was 70.27%, the Activity (Mus musculus [32]) was “Non-toxic” and the zone of inhibition at 1000 µg/mL (Starmerella magnoliae; ATCC 12573, read-out: IZ) was under 1 mm. The zone of inhibition at 1000 µg/mL (Aspergillus fumigatus; Aspergillus fumigatus, read-out: IZ) was 3 mm, the zone of inhibition at 1000 µg/mL (Nannizzia gypsea; Nannizzia gypsea, read-out: IZ) was 7 mm and the MFC (Candida albicans [19]) was 3.12 µg/mL (≈ 7.21 µM). It also gave an MIC (Candida albicans [19]) of 1.56 µg/mL (≈ 3.61 µM), an MFC (Torula [20]) of 12.5 µg/mL (≈ 28.9 µM) and an MIC (Torula [20]) of 12.5 µg/mL (≈ 28.9 µM). It also gave an MFC (Candida tropicalis [21]) of 6.25 µg/mL (≈ 14.5 µM), an MIC (Candida tropicalis [21]) of 0.78 µg/mL (≈ 1.8 µM) and an MFC (Candida tropicalis [22]) of 3.12 µg/mL (≈ 7.21 µM). For the same compound, the MIC (Candida tropicalis [22]) was 1.56 µg/mL (≈ 3.61 µM) and the zone of inhibition at 1000 µg/mL (Candida tropicalis [23]; Candida tropicalis, read-out: IZ) was over 12 mm.
